Literature values in patent publication US6506600B2, “Secreting products from skin by adeno-associated virus (AAV) gene transfer” (University of Arkansas, priority 2000, dated 2003).

Tests used:
[1] = system: pulmonary alveolar proteinosis; conditions: four PAP patients; subcutaneous once daily for 12 wk, 3 to 9 μg/kg/d
neutrophil count = conditions: patients with neutropenia due to chemotherapy; initial dose 5 microg/kg/day
neutropenia = conditions: neonates <32 weeks gestation; 10 μg/kg/d subcutaneous for 5 days

| Substance | serum half-life (serum) [h] | symptomatic, physiologic and radiographic response [1] | rise of neutrophil count (median) (neutrophil count) [fold] | effect on neutropenia (neutropenia) | t1/2 (in vivo) [min] |
| --- | --- | --- | --- | --- | --- |
| granulocyte macrophage colony stimulating factor [GM-CSF] | 8 | Three of the four patients experienced symptomatic, physiologic, and radiographic improvement | 6.6 | completely abolished neutropenia |  |
| hGH: human growth hormone, 22 kDa |  |  |  |  | 4 |
